Literature values as cited in article PMC10499419 (Clinical and Translational Science, 2023).

Tested on: healthy subjects

CN1C(=O)[C@@H](NC(=O)c2nnc(Cc3ccccc3)[nH]2)COc2ccccc21 [GSK2982772]
Tolerability in healthy subjects: well‐tolerated
